Type in all cases: in vivo
One experiment relates to Puccinia triticina. In words: Wheat brown rust (PUCCRT) fungicidal activity on wheat seedlings. Put shortly: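 Compounds in acetone diluted with nine volumes water containing 110 ppm Triton X-100, sprayed to run-off on first-leaf Yuma wheat seedlings inoculated with P. triticina spores before or after treatment. Dark dew room 22° C, 100% RH overnight, then greenhouse 24° C; percent disease control from severity (0-100%) relative to untreated plants.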

The next experiment deals with Uncinula necator. The experiment can be described thus: Grape powdery mildew (UNCINE) fungicidal activity. Conditions: Erysiphe necator, 24 h, 1 Day Protectant, read-out: Disease Control UNCINE 1DP. As for the experimental part: Technical grades of materials were dissolved in acetone, which were then mixed with nine volumes of water containing 110 ppm Triton X-100. The fungicide solutions were applied onto wheat seedlings using an automated booth sprayer to run-off. All sprayed plants were allowed to air dry prior to further handling. Wheat plants (variety Yuma) were grown from seed in a greenhouse in 50% mineral soil/50% soil-less Metro mix until the first leaf was fully emerged, with 7-10 seedlings per pot. These plants were inoculated with an aqueous spore suspension of Septoria tritici either prior to or after fungicide treatments. After inoculation the plants were kept in 100% relative humidity (one day in a dark dew chamber followed by two to three days in a lighted dew chamber at 20° C.) to permit spores to germinate and infect the leaf. The plants were then transferred to a greenhouse set at 20° C. for disease to develop. When disease symptoms were fully expressed on the 1st leaves of untreated plants, infection levels were assessed on a scale of 0 to 100 percent disease severity. Percent disease control was calculated using the ratio of disease severity on treated plants relative to untreated plants. Evaluation of Fungicidal Activity: Grape Powdery Mildew (Uncinula Necator; Bayer Code […]) Grape seedlings (variety Carignane) were grown in soil-less Metro mix, with one plant per pot, and used in the test when approximately one month old. Plants were inoculated 24 hr after fungicide treatment by shaking spores from infected leaves over test plants. Plants were maintained in a greenhouse set at 20° C. until disease was fully developed. Fungicide formulation, application and disease assessment on the sprayed leaves followed the procedures as described in the Example A.

In experiment [1] the test system is Magnaporthe grisea; Anamorph: Pyricularia oryzae. The experiment can be described thus: whole plant or invertebrate. Conditions: 24 h, read-out: Disease Control PYRIOR 1DP.
For another experiment, the system named is Leptosphaeria nodorum. The experiment can be described thus: Wheat glume blotch (LEPTNO) fungicidal activity. The following applies: Parastagonospora nodorum, 24 h, 1 Day Protectant, read-out: Disease Control LEPTNO 1DP. As for the experimental part:
Technical grades of materials were dissolved in acetone, which were then mixed with nine volumes of water containing 110 ppm Triton X-100. The fungicide solutions were applied onto wheat seedlings using an automated booth sprayer to run-off. All sprayed plants were allowed to air dry prior to further handling. Wheat plants (variety Yuma) were grown from seed in a greenhouse in 50% mineral soil/50% soil-less Metro mix until the first leaf was fully emerged, with 7-10 seedlings per pot. These plants were inoculated with an aqueous spore suspension of Septoria tritici either prior to or after fungicide treatments. After inoculation the plants were kept in 100% relative humidity (one day in a dark dew chamber followed by two to three days in a lighted dew chamber at 20° C.) to permit spores to germinate and infect the leaf. The plants were then transferred to a greenhouse set at 20° C. for disease to develop. When disease symptoms were fully expressed on the 1st leaves of untreated plants, infection levels were assessed on a scale of 0 to 100 percent disease severity. Percent disease control was calculated using the ratio of disease severity on treated plants relative to untreated plants. Evaluation of Fungicidal Activity: Wheat Glume Blotch (Leptosphaeria Nodorum; Bayer Code […]) Wheat plants (variety Yuma) were grown from seed in a greenhouse in 50% mineral soil/50% soil-less Metro mix until the first leaf was fully emerged, with 7-10 seedlings per pot. These plants were inoculated with an aqueous spore suspension of Leptosphaeria nodorum 24 hr after fungicide treatments. After inoculation the plants were kept in 100% relative humidity (one day in a dark dew chamber followed by two days in a lighted dew chamber at 20° C.) to permit spores to germinate and infect the leaf. The plants were then transferred to a greenhouse set at 20° C. for disease to develop. Fungicide formulation, application and disease assessment followed the procedures as described in the Example A.

The subject of another experiment is Cercospora beticola. In words: Leaf spot of sugar beets (CERCBE) fungicidal activity. Conditions: 24 h, 1 Day Protectant, sugar beet, read-out: Disease Control CERCBE 1DP. As for the experimental part:
Technical grades of materials were dissolved in acetone, which were then mixed with nine volumes of water containing 110 ppm Triton X-100. The fungicide solutions were applied onto wheat seedlings using an automated booth sprayer to run-off. All sprayed plants were allowed to air dry prior to further handling. Wheat plants (variety Yuma) were grown from seed in a greenhouse in 50% mineral soil/50% soil-less Metro mix until the first leaf was fully emerged, with 7-10 seedlings per pot. These plants were inoculated with an aqueous spore suspension of Septoria tritici either prior to or after fungicide treatments. After inoculation the plants were kept in 100% relative humidity (one day in a dark dew chamber followed by two to three days in a lighted dew chamber at 20° C.) to permit spores to germinate and infect the leaf. The plants were then transferred to a greenhouse set at 20° C. for disease to develop. When disease symptoms were fully expressed on the 1st leaves of untreated plants, infection levels were assessed on a scale of 0 to 100 percent disease severity. Percent disease control was calculated using the ratio of disease severity on treated plants relative to untreated plants. Evaluation of Fungicidal Activity: Leaf Spot of Sugar Beets (Cercospora Beticola; Bayer Code CERCBE) Sugar beet plants (variety HH88) were grown in soil-less Metro mix and trimmed regularly to maintain an uniform plant size prior to test. Plants were inoculated with a spore suspension 24 hr after fungicide treatments. Inoculated plants were kept in a dew chamber at 22° C. for 48 hr then incubated in a greenhouse set at 24° C. under a clear plastic hood with bottom ventilation until disease symptoms were fully expressed. Fungicide formulation, application and disease assessment on the sprayed leaves followed the procedures as described in the Example A.

[2] abbreviates: 24 h, 1 Day Protectant, read-out: Disease Control PUCCRT 1 DP.
[3] abbreviates: 72 h, 3 Day Curative, read-out: Disease Control PUCCRT 3 DC.

Consider eight molecules from patent US8835462B2, “Macrocyclic picolinamides as fungicides” (Dow AgroSciences LLC, priority 2012, dated 2014).

Like-named read-outs stand apart in the source and are kept apart here.

For the molecule `COc1ccnc(C(=O)N[C@H]2COC[C@H](Cc3ccccc3)[C@@H](OCC(C)C)[C@H](C)OC2=O)c1O` [Compound 2, N-((3S,7S,8R,9S)-7-benzyl-8-isobutoxy-9-methyl-2-oxo-1,5-dioxonan-3-yl)-3-hydroxy-4-methoxypicolinamide], the pest or weed control at 100 ppm was 80 to 100% with Puccinia triticina (setting [2]), 80 to 100% with Puccinia triticina (setting [3]), 0 to 80% in the experiment on Uncinula necator and 80 to 100% in experiment [1].

As for `COc1ccnc(C(=O)N[C@H]2COC[C@H](Cc3ccccc3)[C@@H](OCC(C)C)[C@H](C)OC2=O)c1OCOC(=O)C(C)C` [Compound 3], the pest or weed control at 100 ppm in the experiment with Leptosphaeria nodorum, with Puccinia triticina (setting [2]), with Puccinia triticina (setting [3]), in the experiment with Cercospora beticola and in the experiment with Uncinula necator was 80 to 100% in each case.

On to `COc1ccnc(C(=O)N[C@H]2COC[C@H](Cc3ccccc3)[C@@H](OCC(C)C)[C@H](C)OC2=O)c1OCOC(=O)C(C)(C)C` [Compound 7], for which the pest or weed control at 100 ppm in the experiment with Leptosphaeria nodorum, with Puccinia triticina (setting [2]), in the experiment on Puccinia triticina (setting [3]), in the experiment with Cercospora beticola and with Uncinula necator was 80 to 100% in each case.

As for `COc1ccnc(C(=O)N[C@H]2COC[C@H](Cc3ccccc3)[C@@H](OCC(C)C)[C@H](C)OC2=O)c1OCOC(C)=O` [Compound 8, (2-((3S,7S,8R,9S)-7-benzyl-8-isobutoxy-9-methyl-2-oxo-1,5-dioxonan-3-ylcarbamoyl)-4-methoxypyridin-3-yloxy)methyl acetate], the pest or weed control at 100 ppm (with Leptosphaeria nodorum; in the experiment on Puccinia triticina (setting [2]); with Puccinia triticina (setting [3]); in the experiment on Cercospora beticola; in the experiment with Uncinula necator; in experiment [1]) was 80 to 100% each time.

On to `COc1ccnc(C(=O)N[C@H]2COC[C@H](Cc3ccccc3)[C@@H](OCC(C)C)[C@H](C)OC2=O)c1OC(C)=O` [Compound 9, 2-(((3S,7S,8R,9S)-7-benzyl-8-isobutoxy-9-methyl-2-oxo-1,5-dioxonan-3-yl)carbamoyl)-4-methoxypyridin-3-yl acetate], for which the pest or weed control at 100 ppm in the experiment with Leptosphaeria nodorum, in the experiment on Puccinia triticina (setting [2]), in the experiment on Puccinia triticina (setting [3]), in the experiment on Cercospora beticola and in the experiment on Uncinula necator was 80 to 100% in each case.

Regarding `COc1ccnc(C(=O)N[C@H]2COC[C@H](Cc3ccccc3)[C@@H](OCC(C)C)[C@H](C)OC2=O)c1OC(=O)OC(C)C` [Compound 10, 2-(((3S,7S,8R,9S)-7-benzyl-8-isobutoxy-9-methyl-2-oxo-1,5-dioxonan-3-yl)carbamoyl)-4-methoxypyridin-3-yl isopropyl carbonate], the pest or weed control at 100 ppm with Leptosphaeria nodorum was in the range of 80 to 100%; with Puccinia triticina (setting [2]) it was 80 to 100%; in the experiment on Puccinia triticina (setting [3]), 80 to 100%; with Cercospora beticola it was 80 to 100%; with Uncinula necator it was 0 to 80%.

For the molecule `COc1ccnc(C(=O)N[C@H]2COC[C@H](Cc3ccccc3)[C@@H](OCCC(=O)N(C)C)[C@H](C)OC2=O)c1OCOC(C)=O` [Compound 15], the pest or weed control at 100 ppm (in the experiment on Leptosphaeria nodorum; in the experiment with Puccinia triticina (setting [2]); in the experiment with Puccinia triticina (setting [3]); in the experiment on Cercospora beticola; with Uncinula necator; in experiment [1]) was 0 to 80% each time.

On to `COc1ccnc(C(=O)N[C@H]2COC[C@H](Cc3ccccc3)[C@@H](OC3CCCC3)[C@H](C)OC2=O)c1OCOC(C)=O` [Compound 106], for which the pest or weed control at 100 ppm in the experiment on Leptosphaeria nodorum, with Puccinia triticina (setting [2]), with Puccinia triticina (setting [3]) and in the experiment on Cercospora beticola was 80 to 100% each time.
